Read-outs that look alike come from different tables or passages of the source.
Legend:
[1] = acid counterion; cited from earlier work
[2] = Salt stability studies (40° C./75% RH for 1 week, XRPD); format: physicochemical
Procedure: Recovered salts were placed in an oven at 40° C./75% RH for 1 week, and the resultant materials were analyzed by XRPD to determine any changes to form or crystallinity.

Thermodynamic solubility = format: physicochemical; conditions: for solubility thermodynamic at 24 h: thermodynamic from solid, ambient temperature, read-out: Concentration (thermodynamic solubility)
Procedure: Thermodynamic solubility studies were carried out as follows: 10 mg of prepared salts were suspended in pH 1, 4.5, 6.8 and un-buffered water (300 μL). The pH of the slurries was measured and adjusted accordingly using either 0.2M HCl solution or 0.2M sodium hydroxide solution. The slurries were agitated for 24 hours at ambient temperature using an incubator shaker.

[3] = Hydration screen (acetone/water mixtures of various water activities); format: physicochemical; conditions: ambient
Procedure: Hydration screen was carried out as follows: 10 mg of prepared salts were suspended in several acetone/water mixtures of various water activities (low: aw=0.281, medium: aw=0.776 and high: aw=0.919) and agitated at ambient temperatures for 24 hr. Any recovered solids were submitted for XRPD analysis to determine any changes to form.

[4] = Salt disproportionation studies; format: physicochemical; conditions: deionized water, 24 h, ambient temperature
Procedure: Salt disproportionation studies were carried out as follows: 20 mg of prepared salts were weighed into a vial and 0.5 mL of deionized water was added. The samples were then agitated for 24 h at ambient temperature. The pH of the samples was taken pre- and post-agitation. Any solids recovered were submitted for XRPD analysis to determine any changes to form.

[5] = Dynamic vapor sorption (DVS); format: physicochemical
Procedure: Approximately, 10 mg of sample was placed into a mesh vapor sorption balance pan and loaded into a DVS-1 dynamic vapor sorption balance by Surface Measurement Systems. The sample was subjected to a ramping profile from 40-90% relative humidity (RH) at 10% increments, maintaining the sample at each step until a stable weight had been achieved (99.5% step completion). After completion of the sorption cycle, the sample was dried using the same procedure to 0% RH and then a second sorption cycle back to 40% RH. The weight change during the sorption/desorption cycles were plotted, allowing for the hygroscopic nature of the sample to be determined. XRPD analysis was then carried out on any solid retained.

[6] = 1 week stability tests (40° C./75% RH, 80° C., ambient light; XRPD and UPLC); format: physicochemical
[7] = Solvent solubility of Compound 1 free base (stepwise solvent addition to amorphous material); format: physicochemical; conditions: 40 °C, thermodynamic from solid, read-out: Approx. Solubility
Procedure: A solid Compound 1 was obtained as follows. A […] of solution containing about 330 mg of Compound 1 in warm 1,4-dioxane was divided between 33, 2 mL glass vials (1.5 mL in each). The solutions were frozen and freeze-dried by lyophilization overnight. The resulting material was then analyzed by XRPD to confirm mostly amorphous material.
Approximately 10 mg of amorphous Compound 1 was produced in 32×2 mL glass vials from freeze drying and 100 μL of the appropriate solvent system was added to the appropriate vial. Between each addition, the mixture was checked for dissolution and if no dissolution was apparent, the mixture was heated to about 40° C. and checked again. This procedure was continued until dissolution was observed or until 2 mL had been added (to the compound concentration of <5 mg/mL).

O=S(=O)(O)CCO [2-Hydroxy ethanesulfonic acid]
pKa 1 [1]: 1.66

C[C@@H]1CCc2ncc(F)cc2[C@H]2CCCN2c2ccn3ncc(c3n2)C(=O)N1.O=C(O)C[C@H](O)C(=O)O [Compound 1 L-malate]
changes to form or crystallinity after stability conditions (XRPD) ([2]; salt recovered from TBME): no change to crystallinity and form

C[C@@H]1CCc2ncc(F)cc2[C@H]2CCCN2c2ccn3ncc(c3n2)C(=O)N1.O=S(=O)(O)c1ccccc1 [Compound 1 besylate]
solubility thermodynamic at 24 h (Thermodynamic solubility; aqueous buffer, pH 4.5 buffer): 12.7 mg/mL
thermodynamic solubility (in words) (Thermodynamic solubility; pH 1): highly soluble
solids recovered after thermodynamic solubility study (XRPD) (Thermodynamic solubility; pH 4.5): an unknown form
thermodynamic solubility (in words) (Thermodynamic solubility; pH 4.5): moderately soluble
solids recovered after thermodynamic solubility study (XRPD) (Thermodynamic solubility; pH 6.8): poorly crystalline free base
thermodynamic solubility (in words) (Thermodynamic solubility; pH 6.8): low solubility
solubility thermodynamic at 24 h (Thermodynamic solubility; pH 6.8 potassium phosphate buffer, aqueous buffer, pH 6.8 buffer): 1.9 mg/mL
solubility thermodynamic at 24 h (Thermodynamic solubility; simulated gastric fluid, pH 1 buffer): 30.8 mg/mL
solubility thermodynamic at 24 h (Thermodynamic solubility; un-buffered water): 17.9 mg/mL
solids recovered after thermodynamic solubility study (XRPD) (Thermodynamic solubility; un-buffered water): poorly crystalline free base
thermodynamic solubility (in words) (Thermodynamic solubility; un-buffered water): moderately soluble
solid recovered from hydration screen (XRPD) ([3]; high water activity aw=0.919, 24 hr): poorly crystalline besylate salt
solid recovered from hydration screen (XRPD) ([3]; low water activity aw=0.281, 24 hr): poorly crystalline besylate salt
material recovered after salt disproportionation study (XRPD) [4]: poorly crystalline free base
changes to form or crystallinity after stability conditions (XRPD) ([2]; salt recovered from TBME): preferred orientation but no changes to form
changes to form or crystallinity after stability conditions (XRPD) ([2]; salt recovered from THF): an increase to crystallinity but no changes to form
changes to form or crystallinity after stability conditions (XRPD) ([2]; salt recovered from ethanol): a decrease in crystallinity
hygroscopicity by DVS (in words) ([5]; DVS humidity conditions): low hygroscopicity
change in crystalline form after exposure to DVS conditions (post-DVS XRPD) ([5]; after DVS cycle): no changes in crystalline form
mass uptake (DVS) ([5]; at 90% RH): about 0.7%
change to form after 1 week stability test (XRPD) ([6]; 40° C./75% RH): a mixture of besylate salt and something else
change in purity after 1 week stability test (UPLC) ([6]; 80° C.): no change to purity
change to form after 1 week stability test (XRPD) ([6]; 80° C.): no change to form
change in purity after 1 week stability test (UPLC) ([6]; ambient light): no change to purity
change to form after 1 week stability test (XRPD) ([6]; ambient light): no change to form

C[C@@H]1CCc2ncc(F)cc2[C@H]2CCCN2c2ccn3ncc(c3n2)C(=O)N1 [Compound 1 edisylate]
changes to form or crystallinity after stability conditions (XRPD) ([2]; salt recovered from isopropanol): become amorphous

C[C@@H]1CCc2ncc(F)cc2[C@H]2CCCN2c2ccn3ncc(c3n2)C(=O)N1.O=C(O)/C=C/C(=O)O [Compound 1 fumarate]
changes to form or crystallinity after stability conditions (XRPD) ([2]; salt recovered from acetone): a slight decrease to crystallinity however, no change to form

C[C@@H]1CCc2ncc(F)cc2[C@H]2CCCN2c2ccn3ncc(c3n2)C(=O)N1.O=C(O)C(=O)O [Compound 1 oxalate]
changes to form or crystallinity after stability conditions (XRPD) ([2]; salt recovered from ethanol): a change in crystallinity and form
changes to form or crystallinity after stability conditions (XRPD) ([2]; salt recovered from methanol): no change to crystallinity however, changes to form were seen

C[C@@H]1CCc2ncc(F)cc2[C@H]2CCCN2c2ccn3ncc(c3n2)C(=O)N1.O=C(O)CCC(=O)O [Compound 1 succinate]
changes to form or crystallinity after stability conditions (XRPD) ([2]; salt recovered from acetone): a decrease in crystallinity but no change to form

C[C@@H]1CCc2ncc(F)cc2[C@H]2CCCN2c2ccn3ncc(c3n2)C(=O)N1.Cc1ccc(S(=O)(=O)O)cc1 [Compound 1 tosylate]
changes to form or crystallinity after stability conditions (XRPD) ([2]; salt recovered from acetone): become amorphous

C[C@@H]1CCc2ncc(F)cc2[C@H]2CCCN2c2ccn3ncc(c3n2)C(=O)N1 [Compound 1, (6R,15R)-9-fluoro-15-methyl-2,11,16,20,21,24-hexaazapentacyclo[16.5.2.0^2,6.0^7,12.0^21,25]pentacosa-1 (24),7,9,11,18(25), 19,22-heptaen-17-one]
solubility ([7]; organic solvent or mixture, in 1-Propanol): > 100 mg/mL
solubility ([7]; organic solvent or mixture, in 2-Methyl THF): < 5 mg/mL
solubility ([7]; organic solvent or mixture, in Cyclohexane): < 5 mg/mL
solubility ([7]; organic solvent or mixture, in Cyclopentylmethyl ether): < 5 mg/mL
solubility ([7]; organic solvent or mixture, in Dichloromethane): > 100 mg/mL
solubility ([7]; organic solvent or mixture, in Diisopropyl ether): < 5 mg/mL
solubility ([7]; organic solvent or mixture, in Dimethylformamide): > 100 mg/mL
solubility ([7]; organic solvent or mixture, in Ethyl acetate): < 5 mg/mL
solubility ([7]; organic solvent or mixture, in Heptane): < 5 mg/mL
solubility ([7]; organic solvent or mixture, in Isobutyl acetate): < 5 mg/mL
solubility ([7]; organic solvent or mixture, in Isopropyl acetate): < 5 mg/mL
solubility ([7]; organic solvent or mixture, in N,N-Dimethylacetamide): > 100 mg/mL
solubility ([7]; organic solvent or mixture, in N-Methylpyrrolidone): > 100 mg/mL
solubility ([7]; organic solvent or mixture, in TBME:Heptane (60:40 v/v)): < 5 mg/mL
solubility ([7]; organic solvent or mixture, in TBME): < 5 mg/mL
solubility ([7]; organic solvent or mixture, in Toluene): < 5 mg/mL
solubility ([7]; in Water): < 5 mg/mL
change in purity after 1 week stability test (UPLC) ([6]; 40° C./75% RH): no change in purity
change to form after 1 week stability test (XRPD) ([6]; 40° C./75% RH): no change to form
average purity after 1 week stability test (UPLC) ([6]; 40° C./75% RH (relative humidity test)): 99.2%
average purity after 1 week stability test (UPLC) ([6]; 80° C.): 99.3%
change in purity after 1 week stability test (UPLC) ([6]; 80° C.): no change in purity
change to form after 1 week stability test (XRPD) ([6]; 80° C.): no change to form
average purity after 1 week stability test (UPLC) ([6]; ambient light): 99.2%
change in purity after 1 week stability test (UPLC) ([6]; ambient light): no change in purity
change to form after 1 week stability test (XRPD) ([6]; ambient light): no change to form

O=C(O)[C@H](O)[C@@H](O)[C@H](O)[C@H](O)CO [D-Gluconic acid (50% in water), D-Gluconic acid]
pKa 1 [1]: 3.76

O=C[C@H](O)[C@@H](O)[C@H](O)[C@H](O)C(=O)O [D-Glucuronic acid]
pKa 1 [1]: 3.18

CCS(=O)(=O)O [Ethane sulfonic acid]
pKa 1 [1]: −2.05

O=C(O)CNC(=O)c1ccccc1 [Hippuric acid]
pKa 1 [1]: 3.55
